Assay results reported in US20140228287A1, “1-[(3-CYANO-PYRIDIN-2-YL)METHYL]-3-METHYL-7-(2-BUTYN-1-YL)-8-[3-(R)-AMINO-PIPERIDIN-1-YL]-AXANTHINE FOR THE TREATMENT OF A METABOLIC DISORDER OF A PREDOMINANTLY CARNIVOROUS NON-HUMAN ANIMAL” (BOEHRINGER INGELHEIM VETMEDICA GMBH, priority 2010, published 2014).
Structures can show the parent of a compound that is named as a salt. Where two headings read alike, the source gives them in different places.

Experiments:
[1] = target: T1, plasma DPP-4 (Rattus norvegicus, UniProt P14740); test: Inhibition of DPP-4 in rat plasma (in vitro); assay type: biochemical; conditions: wistar rat plasma
T1 construct: from tissue
T1 sequence (P14740 37-767 limits assumed): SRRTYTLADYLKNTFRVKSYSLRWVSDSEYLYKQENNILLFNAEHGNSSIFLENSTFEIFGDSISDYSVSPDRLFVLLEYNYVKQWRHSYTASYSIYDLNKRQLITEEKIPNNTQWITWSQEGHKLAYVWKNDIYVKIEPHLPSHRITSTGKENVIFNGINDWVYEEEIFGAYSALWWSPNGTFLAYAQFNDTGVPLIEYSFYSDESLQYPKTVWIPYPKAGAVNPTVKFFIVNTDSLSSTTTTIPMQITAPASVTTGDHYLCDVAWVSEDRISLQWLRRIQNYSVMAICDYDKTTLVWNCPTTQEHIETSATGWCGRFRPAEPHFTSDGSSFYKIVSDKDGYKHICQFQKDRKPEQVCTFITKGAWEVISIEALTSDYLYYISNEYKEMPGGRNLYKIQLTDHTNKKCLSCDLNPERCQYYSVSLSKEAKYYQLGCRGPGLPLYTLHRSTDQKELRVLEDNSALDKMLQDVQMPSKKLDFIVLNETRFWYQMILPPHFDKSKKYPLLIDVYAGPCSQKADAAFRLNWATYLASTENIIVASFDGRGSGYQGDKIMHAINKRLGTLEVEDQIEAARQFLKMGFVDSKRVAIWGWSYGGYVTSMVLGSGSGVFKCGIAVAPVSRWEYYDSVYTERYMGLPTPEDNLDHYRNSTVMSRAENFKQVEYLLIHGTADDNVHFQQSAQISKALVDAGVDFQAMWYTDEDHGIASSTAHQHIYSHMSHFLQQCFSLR
Method: Plasma obtained from 3 different cats and one Wistar rat as control were each incubated with a range of concentrations of 1-[(3-cyano-pyridin-2-yl)methyl]-3-methyl-7-(2-butyn-1-yl)-8-[3-(R)-amino-piperidin-1-yl]-xanthine monohydrochloride. Plasma DPP-4 activity was measured in the following way (which is also described in Eckhard et al. (2007), J. Med. Chem., Vol. 50, 6450-6453, Supporting Information).
Rat and cat plasma was used for ex vivo measurement of DDP-4 activity. Blood was collected in EDTA tubes and subjected to centrifugation. The resultant supernatant was aliquoted and frozen. […]
The assay itself was initiated by mixing 50 μl of diluted plasma with 50 μl of diluted substrate (Ala-Pro-AFC) and performed in black flat-bottom 96-well plates. The plates were then incubated at room temperature for 1 h and fluorescence was measured at excitation/emission wavelengths of 405/535 nm. Data analysis was performed by calculating the fluorescence in the presence of the test compound compared to the fluorescence of the vehicle control after subtracting the background fluorescence.
From a plot of concentration against activity (equivalent to fluorescence units) kinetic data could be collected, e.g. the half-maximal inhibitory concentration (IC50) of the tested compound in the different animals, which data are given in the following Table 2.

[2] = target: alanine-amino-peptidase (Homo sapiens, UniProt P15144); test: In vitro selectivity, human proteases: alanine-amino-peptidase; assay type: biochemical; conditions: up to 100 μM
Sequence of alanine-amino-peptidase (P15144 whole entry): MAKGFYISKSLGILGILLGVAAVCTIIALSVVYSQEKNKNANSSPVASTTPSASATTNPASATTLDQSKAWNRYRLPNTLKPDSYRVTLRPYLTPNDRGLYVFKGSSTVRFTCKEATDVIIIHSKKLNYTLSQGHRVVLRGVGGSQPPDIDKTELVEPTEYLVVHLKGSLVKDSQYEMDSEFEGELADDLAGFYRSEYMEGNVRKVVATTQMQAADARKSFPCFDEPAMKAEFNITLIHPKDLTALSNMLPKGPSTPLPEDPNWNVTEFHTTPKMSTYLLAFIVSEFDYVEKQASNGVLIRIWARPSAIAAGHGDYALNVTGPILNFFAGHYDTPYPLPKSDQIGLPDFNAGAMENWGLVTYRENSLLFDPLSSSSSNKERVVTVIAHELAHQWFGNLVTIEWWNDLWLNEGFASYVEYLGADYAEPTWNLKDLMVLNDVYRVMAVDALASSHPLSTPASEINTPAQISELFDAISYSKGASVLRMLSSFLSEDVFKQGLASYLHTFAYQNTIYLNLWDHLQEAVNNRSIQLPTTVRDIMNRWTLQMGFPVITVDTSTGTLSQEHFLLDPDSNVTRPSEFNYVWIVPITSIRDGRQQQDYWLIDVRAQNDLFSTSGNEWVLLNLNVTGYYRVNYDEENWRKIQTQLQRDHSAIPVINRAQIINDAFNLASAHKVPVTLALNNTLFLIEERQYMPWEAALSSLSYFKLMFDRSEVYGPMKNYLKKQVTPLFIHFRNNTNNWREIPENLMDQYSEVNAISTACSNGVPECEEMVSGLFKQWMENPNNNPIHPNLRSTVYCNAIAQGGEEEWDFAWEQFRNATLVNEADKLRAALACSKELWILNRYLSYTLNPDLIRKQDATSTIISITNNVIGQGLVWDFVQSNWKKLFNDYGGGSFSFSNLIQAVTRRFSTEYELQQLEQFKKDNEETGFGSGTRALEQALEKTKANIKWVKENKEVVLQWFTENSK
Text: In order to determine the in vitro selectivity of 1-[(3-cyano-pyridin-2-yl)methyl]-3-methyl-7-(2-butyn-1-yl)-8-[3-(R)-amino-piperidin-1-yl]-xanthine, the ability of this compound to inhibit a number of human proteases was investigated as described in Thomas et al. (2008), J. Pharmacol. Exp. Ther., vol. 325, p. 175-182, chapter In vitro DPP-4 Inhibition Assay, p. 176.

[3] = target: T2, DPP IV (Felis catus, UniProt Q9N2I7); test: DPP IV activity in obese/non-obese cats, 7 days once daily dosing; assay type: in vivo, cat; conditions: 9 mg daily, percent of 0 h
T2 construct: Blood samples for the determination of this compound and DPP IV activity were collected; from tissue; host or cells: plasma of domestic short hair / purpose-bred cats dosed orally
T2 sequence (Q9N2I7 38-765 limits assumed): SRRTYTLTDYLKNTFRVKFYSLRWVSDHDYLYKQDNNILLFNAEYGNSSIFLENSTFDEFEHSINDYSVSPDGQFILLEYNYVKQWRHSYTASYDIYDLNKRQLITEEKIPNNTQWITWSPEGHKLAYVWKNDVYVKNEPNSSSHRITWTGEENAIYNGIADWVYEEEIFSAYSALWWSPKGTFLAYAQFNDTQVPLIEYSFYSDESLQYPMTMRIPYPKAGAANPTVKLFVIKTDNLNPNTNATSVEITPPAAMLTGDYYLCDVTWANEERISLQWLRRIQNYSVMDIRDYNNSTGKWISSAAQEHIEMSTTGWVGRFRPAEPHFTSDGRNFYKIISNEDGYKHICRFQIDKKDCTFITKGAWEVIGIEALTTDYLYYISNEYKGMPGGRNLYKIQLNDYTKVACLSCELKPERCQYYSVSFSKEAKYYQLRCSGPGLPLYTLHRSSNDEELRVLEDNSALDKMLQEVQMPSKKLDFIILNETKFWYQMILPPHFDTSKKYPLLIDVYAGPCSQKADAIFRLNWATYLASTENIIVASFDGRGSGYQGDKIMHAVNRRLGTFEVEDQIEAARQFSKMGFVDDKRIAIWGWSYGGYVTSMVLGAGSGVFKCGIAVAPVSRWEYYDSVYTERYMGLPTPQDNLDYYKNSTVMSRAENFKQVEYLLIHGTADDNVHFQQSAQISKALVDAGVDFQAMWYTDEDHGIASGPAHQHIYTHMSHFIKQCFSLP
Text: The aim of this exploratory, randomized, placebo controlled crossover study was to investigate the effect of 1-[(3-cyano-pyridin-2-yl)methyl]-3-methyl-7-(2-butyn-1-yl)-8-[3-(R)-amino-piperidin-1-yl]-xanthine monohydrochloride on DPP IV activity and on glucose concentrations in obese and non-obese cats after repeated oral administration over seven days.
Fourteen clinically healthy male and female (8 obese and 6 non-obese) purpose-bred cats were used in this study. The animals were randomly allocated to two groups of cats, obese and non-obese, and treated in a cross-over design with 9 mg 1-[(3-cyano-pyridin-2-yl)methyl]-3-methyl-7-(2-butyn-1-yl)-8-[3-(R)-amino-piperidin-1-yl]-xanthine monohydrochloride or placebo, once daily for 7 days, with a following wash-out period of 21 days.
Cats were fed once daily 40 min after administration of the compound or the placebo, respectively.
In parallel, DPP IV activity was assessed as above.

In the case of CC#CCn1c(N2CCC[C@@H](N)C2)nc2c1c(=O)n(Cc1ncccc1C#N)c(=O)n2C [1-[(3-cyano-pyridin-2-yl)methyl]-3-methyl-7-(2-butyn-1-yl)-8-[3-(R)-amino-piperidin-1-yl]-xanthine monohydrochloride], the IC50 [1] is reported as 1.95 nM, the hillslope [1] is reported as −0.8462 and the “inhibitory effect on alanine-amino-peptidase” value [2] is reported as “did not exert any inhibitory effect”. It also gave an activity at 9 mg ([3]; Non-obese cats (n = 6), 1 h, read-out: DPP-IV activity %, Max) of 25.4%, an activity at 9 mg ([3]; Non-obese cats (n = 6), 1 h, read-out: DPP-IV activity %, Mean ± STD) of 13.8 ± 5.8% and an activity at 9 mg ([3]; Non-obese cats (n = 6), 1 h, read-out: DPP-IV activity %, Median) of 11.3%. For the same compound, the activity at 9 mg ([3]; Non-obese cats (n = 6), 1 h, read-out: DPP-IV activity %, Min) was 8.4%, the activity at 9 mg ([3]; Non-obese cats (n = 6), 6 h, read-out: DPP-IV activity %, Max) was 25% and the activity at 9 mg ([3]; Non-obese cats (n = 6), 6 h, read-out: DPP-IV activity %, Mean ± STD) was 14.4 ± 5.7%. It also gave an activity at 9 mg ([3]; Non-obese cats (n = 6), 6 h, read-out: DPP-IV activity %, Median) of 11.4%, an activity at 9 mg ([3]; Non-obese cats (n = 6), 6 h, read-out: DPP-IV activity %, Min) of 9.5% and an activity at 9 mg ([3]; Non-obese cats (n = 6), 24 h, read-out: DPP-IV activity %, Max) of 45.1%. It also gave an activity at 9 mg ([3]; Non-obese cats (n = 6), 24 h, read-out: DPP-IV activity %, Mean ± STD) of 20.1 ± 12%, an activity at 9 mg ([3]; Non-obese cats (n = 6), 24 h, read-out: DPP-IV activity %, Median) of 15.3% and an activity at 9 mg ([3]; Non-obese cats (n = 6), 24 h, read-out: DPP-IV activity %, Min) of 8.6%. For the same compound, the activity at 9 mg ([3]; Non-obese cats (n = 6), 72 h, read-out: DPP-IV activity %, Max) was 27.9%, the activity at 9 mg ([3]; Non-obese cats (n = 6), 72 h, read-out: DPP-IV activity %, Mean ± STD) was 18.2 ± 6% and the activity at 9 mg ([3]; Non-obese cats (n = 6), 72 h, read-out: DPP-IV activity %, Median) was 18.9%. For the same compound, the activity at 9 mg ([3]; Non-obese cats (n = 6), 72 h, read-out: DPP-IV activity %, Min) was 8.5%, the activity at 9 mg ([3]; Non-obese cats (n = 6), 168 h, read-out: DPP-IV activity %, Max) was 23.5% and the activity at 9 mg ([3]; Non-obese cats (n = 6), 168 h, read-out: DPP-IV activity %, Mean ± STD) was 17.4 ± 4.7%. It also gave an activity at 9 mg ([3]; Non-obese cats (n = 6), 168 h, read-out: DPP-IV activity %, Median) of 18.2%, an activity at 9 mg ([3]; Non-obese cats (n = 6), 168 h, read-out: DPP-IV activity %, Min) of 10.6% and an activity at 9 mg ([3]; Obese cats (n = 8), 1 h, read-out: DPP-IV activity %, Max) of 17.5%. It also gave an activity at 9 mg ([3]; Obese cats (n = 8), 1 h, read-out: DPP-IV activity %, Mean ± STD) of 12.1 ± 4%, an activity at 9 mg ([3]; Obese cats (n = 8), 1 h, read-out: DPP-IV activity %, Median) of 11.1% and an activity at 9 mg ([3]; Obese cats (n = 8), 1 h, read-out: DPP-IV activity %, Min) of 7.5%. It also gave an activity at 9 mg ([3]; Obese cats (n = 8), 6 h, read-out: DPP-IV activity %, Max) of 20%, an activity at 9 mg ([3]; Obese cats (n = 8), 6 h, read-out: DPP-IV activity %, Mean ± STD) of 11.9 ± 3.9% and an activity at 9 mg ([3]; Obese cats (n = 8), 6 h, read-out: DPP-IV activity %, Median) of 10.5%. It also gave an activity at 9 mg ([3]; Obese cats (n = 8), 6 h, read-out: DPP-IV activity %, Min) of 7.4%, an activity at 9 mg ([3]; Obese cats (n = 8), 24 h, read-out: DPP-IV activity %, Max) of 26.5% and an activity at 9 mg ([3]; Obese cats (n = 8), 24 h, read-out: DPP-IV activity %, Mean ± STD) of 17 ± 5.2%. It also gave an activity at 9 mg ([3]; Obese cats (n = 8), 24 h, read-out: DPP-IV activity %, Median) of 15.4%, an activity at 9 mg ([3]; Obese cats (n = 8), 24 h, read-out: DPP-IV activity %, Min) of 11.4% and an activity at 9 mg ([3]; Obese cats (n = 8), 72 h, read-out: DPP-IV activity %, Max) of 23.9%. For the same compound, the activity at 9 mg ([3]; Obese cats (n = 8), 72 h, read-out: DPP-IV activity %, Mean ± STD) was 18.4 ± 4.4%, the activity at 9 mg ([3]; Obese cats (n = 8), 72 h, read-out: DPP-IV activity %, Median) was 18.5% and the activity at 9 mg ([3]; Obese cats (n = 8), 72 h, read-out: DPP-IV activity %, Min) was 12.2%. It also gave an activity at 9 mg ([3]; Obese cats (n = 8), 168 h, read-out: DPP-IV activity %, Max) of 39.8%, an activity at 9 mg ([3]; Obese cats (n = 8), 168 h, read-out: DPP-IV activity %, Mean ± STD) of 19.9 ± 9% and an activity at 9 mg ([3]; Obese cats (n = 8), 168 h, read-out: DPP-IV activity %, Median) of 19.2%. The activity at 9 mg ([3]; Obese cats (n = 8), 168 h, read-out: DPP-IV activity %, Min) was 8.6%.
